One series can be described thus: CHI Log D procedure. Type of series: physicochemical. To be noted: for CHI Log D: pH 7.4; for chromatographic logD: pH 7.4, CHI Log D.
The target of series [1] is T1, full-length beta-Catenin (Uniprot ID P35222) (Homo sapiens, UniProt P35222).
T1 construct: 10 nM full-length beta-Catenin (Uniprot ID P35222)
T1 sequence (P35222 1-781): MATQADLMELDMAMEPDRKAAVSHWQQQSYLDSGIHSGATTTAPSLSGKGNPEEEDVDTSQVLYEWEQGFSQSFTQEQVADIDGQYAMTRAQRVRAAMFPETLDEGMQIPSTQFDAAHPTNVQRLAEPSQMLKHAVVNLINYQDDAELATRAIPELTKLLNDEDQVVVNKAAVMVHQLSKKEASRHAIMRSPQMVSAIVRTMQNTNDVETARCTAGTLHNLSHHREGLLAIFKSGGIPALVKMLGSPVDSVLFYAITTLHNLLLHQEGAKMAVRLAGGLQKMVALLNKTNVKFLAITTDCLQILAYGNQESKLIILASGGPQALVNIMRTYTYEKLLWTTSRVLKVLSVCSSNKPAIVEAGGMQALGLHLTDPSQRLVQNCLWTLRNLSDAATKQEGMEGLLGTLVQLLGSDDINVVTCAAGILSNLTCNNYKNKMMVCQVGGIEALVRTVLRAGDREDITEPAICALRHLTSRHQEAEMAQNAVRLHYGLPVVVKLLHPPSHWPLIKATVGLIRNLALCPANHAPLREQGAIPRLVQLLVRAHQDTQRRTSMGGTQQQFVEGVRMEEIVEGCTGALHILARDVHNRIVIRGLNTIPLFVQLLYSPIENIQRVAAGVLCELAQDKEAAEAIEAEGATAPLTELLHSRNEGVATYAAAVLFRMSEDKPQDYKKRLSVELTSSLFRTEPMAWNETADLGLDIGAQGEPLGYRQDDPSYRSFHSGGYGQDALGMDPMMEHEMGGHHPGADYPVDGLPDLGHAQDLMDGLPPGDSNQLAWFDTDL
Put plainly: Fluorescence polarization IC50 (beta-catenin / 5FAM-TCF4 10-53 competition). In kind it is binding.

Setting [2] is: Table E2-1, read-out: beta-Catenin FP IC50.
The mark [3] stands for this setting: fluorescence polarization, beta-catenin, read-out: FP EC50.
Where [4] appears, read: fluorescence polarization, read-out: beta-Catenin FP IC50.

Experimental findings from US20240116985A1, “STAPLED PEPTIDES AND METHODS THEREOF” (priority 2020, published 2024) are described below.

SMILES strings stand for the structures. Like-named read-outs stand apart in the source and are kept apart here.

Consider `CC(=O)N1CCC[C@]12CC=CCCCC1(CCCC=CCCCCCC[C@@](C)(C(=O)N[C@@H](Cc3ccccc3)C(=O)N[C@@H](Cc3c[nH]c4ccccc34)C(N)=O)NC(=O)[C@H](C(C)C)NC(=O)[C@H](Cc3ccccc3)NC(=O)[C@H](C)NC(=O)[C@H](C)NC(=O)[C@H](CC(=O)O)NC(=O)[C@H](CC(=O)O)NC1=O)NC(=O)[C@H](C)NC(=O)[C@H](CC(=O)O)NC2=O` (stereo partly drawn) [I-290, Ac-PL3-Asp-Ala-B5-Asp-Asp-Ala-Ala-Phe-Val-S8-Phe-Trp-NH2], for which, in the series “CHI Log D procedure”, the “CHI Log D” value is 2.271. The IC50 in series [1] (setting [2]) and in series [1] (setting [3]) was 3.29 µM each time.

`CC(=O)N1CCC[C@]12CC=CCCCC1(CCCC=CCCCCCC[C@@](C)(C(=O)N[C@@H](Cc3ccccc3)C(=O)N[C@@H](Cc3c[nH]c4ccccc34)C(=O)N[C@@H](CCC(N)=O)C(N)=O)NC(=O)[C@H](C(C)C)NC(=O)[C@H](Cc3cccc(Cl)c3)NC(=O)[C@H](C)NC(=O)[C@H](C)NC(=O)[C@H](CC(=O)O)NC(=O)[C@H](CC(=O)O)NC1=O)NC(=O)[C@H](C)NC(=O)[C@H](CC(=O)O)NC2=O` (stereo partly drawn) [I-307, Ac-PL3-Asp-Ala-B5-Asp-Asp-Ala-Ala-3C1F-Val-S8-Phe-Trp-Gln-NH2]: the “CHI Log D” value in “CHI Log D procedure” was determined as 2.055. Also, the IC50 in series [1] (setting [2]) and in series [1] (setting [3]) was 4.2 µM throughout.

Consider `CC(=O)N1CCC[C@]12CC=CCCCC1(CCCC=CCCCCCC[C@@](C)(C(=O)N[C@@H](Cc3ccccc3)C(=O)N[C@@H](Cc3c[nH]c4ccccc34)C(=O)N[C@@H](CCC(N)=O)C(N)=O)NC(=O)[C@H](C(C)C)NC(=O)[C@H](Cc3ccccc3F)NC(=O)[C@H](C)NC(=O)[C@H](C)NC(=O)[C@H](CC(=O)O)NC(=O)[C@H](CC(=O)O)NC1=O)NC(=O)[C@H](C)NC(=O)[C@H](CC(=O)O)NC2=O` (stereo partly drawn) [I-317, Ac-PL3-Asp-Ala-B5-Asp-Asp-Ala-Ala-2FF-Val-S8-Phe-Trp-Gln-NH2], for which the chromatographic logD in “CHI Log D procedure” came to 2.02. In addition, the IC50 in series [1] (setting [2]) was found to be 5 µM.

Turning to `CC(=O)N1CCC[C@]12CC=CCCCC1(CCCC=CCCCCCC[C@@](C)(C(=O)N[C@@H](Cc3ccccc3)C(=O)N[C@@H](Cc3csc4ccccc34)C(=O)N[C@@H](CCC(N)=O)C(N)=O)NC(=O)[C@H](C)NC(=O)[C@H](Cc3ccccc3C)NC(=O)[C@H](C)NC(=O)[C@H](C)NC(=O)[C@H](CC(=O)O)NC(=O)[C@H](CC(=O)O)NC1=O)NC(=O)[C@H](C)NC(=O)[C@H](CC(=O)O)NC2=O` (stereo partly drawn) [I-366, Ac-PL3-Asp-Ala-B5-Asp-Asp-Ala-Ala-2MeF-Ala-S8-Phe-BztA-Gln-NH2], in “CHI Log D procedure”, the “CHI Log D” value was 2.084. The IC50 in series [1] (setting [2]) and in series [1] (setting [3]) was 1.44 µM throughout.

In “CHI Log D procedure”, `CC(=O)N1CCC[C@]12CC=CCCCC1(CCCC=CCCCCCC[C@@](C)(C(=O)N[C@@H](Cc3ccccc3C)C(=O)N[C@@H](Cc3csc4ccccc34)C(=O)N[C@@H](CCC(N)=O)C(N)=O)NC(=O)[C@H](C)NC(=O)[C@H](Cc3ccccc3)NC(=O)[C@H](C)NC(=O)[C@H](C)NC(=O)[C@H](CC(=O)O)NC(=O)[C@H](CC(=O)O)NC1=O)NC(=O)[C@H](C)NC(=O)[C@H](CC(=O)O)NC2=O` (stereo partly drawn) [I-367, Ac-PL3-Asp-Ala-B5-Asp-Asp-Ala-Ala-Phe-Ala-S8-2MeF-BztA-Gln-NH2] yielded a chromatographic logD of 2.15. For the same compound, the IC50 in series [1] (setting [2]) turned out to be 0.177 µM.

Consider `CC(=O)N1CCC[C@]12CC=CCCCC1(CCCC=CCCCCCC[C@@](C)(C(=O)N[C@@H](Cc3ccccc3)C(=O)N[C@@H](Cc3cccc4ccc(F)cc34)C(=O)N[C@@H](CCC(N)=O)C(N)=O)NC(=O)[C@H](C(C)C)NC(=O)[C@H](Cc3ccccc3)NC(=O)[C@H](C)NC(=O)[C@H](C)NC(=O)[C@H](CC(=O)O)NC(=O)[C@H](CC(=O)O)NC1=O)NC(=O)[C@H](C)NC(=O)[C@H](CC(=O)O)NC2=O` (stereo partly drawn) [I-368, Ac-PL3-Asp-Ala-B5-Asp-Asp-Ala-Ala-Phe-Val-S8-Phe-7F1NapA-Gln-NH2], for which, in “CHI Log D procedure”, the chromatographic logD stood at 2.17. Further, the IC50 in series [1] (setting [2]) is 5 µM.

Compound `CC(=O)N1CCC[C@]12CC=CCCCC1(CCCC=CCCCCCC[C@@](C)(C(=O)N[C@@H](Cc3cc(F)cc(F)c3)C(=O)N[C@@H](Cc3csc4ccccc34)C(=O)N[C@@H](CCC(N)=O)C(N)=O)NC(=O)[C@H](C(C)C)NC(=O)[C@H](Cc3ccccc3)NC(=O)[C@H](C)NC(=O)[C@H](C)NC(=O)[C@H](CCC(=O)O)NC(=O)[C@H](CC(=O)O)NC1=O)NC(=O)[C@H](C)NC(=O)[C@H](CC(=O)O)NC2=O` (stereo partly drawn) [I-394, Ac-PL3-Asp-Ala-B5-Asp-Glu-Ala-Ala-Phe-Val-S8-35FF-BztA-Gln-NH2] displayed a chromatographic logD in the series “CHI Log D procedure” of 3.86. Also, the IC50 in series [1] (setting [4]) came to 5 µM.

In “CHI Log D procedure”, `CC(=O)N1CCC[C@]12CC=CCCCC1(CCCC=CCCCCCC[C@@](C)(C(=O)N[C@@H](Cc3cccc(C)c3)C(=O)N[C@@H](Cc3csc4ccccc34)C(=O)N[C@@H](CCC(N)=O)C(N)=O)NC(=O)[C@H](C(C)C)NC(=O)[C@H](Cc3ccccc3)NC(=O)[C@H](C)NC(=O)[C@H](C)NC(=O)[C@H](CCC(=O)O)NC(=O)[C@H](CC(=O)O)NC1=O)NC(=O)[C@H](C)NC(=O)[C@H](CC(=O)O)NC2=O` (stereo partly drawn) [I-395, Ac-PL3-Asp-Ala-B5-Asp-Glu-Ala-Ala-Phe-Val-S8-3MeF-BztA-Gln-NH2] showed a chromatographic logD of 4.07. Moreover, in series [1] (setting [4]), the IC50 came out at 5 µM.

Consider `CC(=O)N1CCC[C@]12CC=CCCCC1(CCCC=CCCCCCC[C@@](C)(C(=O)N[C@@H](Cc3cccc(F)c3)C(=O)N[C@@H](Cc3csc4ccccc34)C(=O)N[C@@H](CCC(N)=O)C(N)=O)NC(=O)[C@H](C(C)C)NC(=O)[C@H](Cc3ccccc3)NC(=O)[C@H](C)NC(=O)[C@H](C)NC(=O)[C@H](Cc3c[nH]cn3)NC(=O)[C@H](CC(=O)O)NC1=O)NC(=O)[C@H](C)NC(=O)[C@H](CC(=O)O)NC2=O` (stereo partly drawn) [I-396, Ac-PL3-Asp-Ala-B5-Asp-His-Ala-Ala-Phe-Val-S8-3FF-BztA-Gln-NH2], for which the “CHI Log D” value in “CHI Log D procedure” was determined as 2.819. The IC50 in series [1] (setting [3]) and in series [1] (setting [4]) was 3.43 µM throughout.

Take `CC(=O)N1CCC[C@]12CC=CCCCC1(CCCC=CCCCCCC[C@@](C)(C(=O)N[C@@H](Cc3cccc(F)c3)C(=O)N[C@@H](Cc3csc4ccccc34)C(=O)N[C@@H](CCC(N)=O)C(N)=O)NC(=O)[C@H](C(C)C)NC(=O)[C@H](Cc3ccccc3)NC(=O)[C@H](C)NC(=O)[C@H](C)NC(=O)[C@H](Cc3c[nH]cn3)NC(=O)[C@H](CC(=O)O)NC1=O)NC(=O)[C@H](C)NC(=O)[C@H](CC(=O)O)NC2=O` (stereo partly drawn) [I-397, Ac-PL3-Asp-Ala-B5-Asp-His-Ala-Ala-Phe-Val-S8-3FF-BztA-Gln-NH2]: the “CHI Log D” value in “CHI Log D procedure” is 2.828. For the same compound, the IC50 in series [1] (setting [3]) and in series [1] (setting [4]) was 2.23 µM each time.

`CC(=O)N1CCC[C@]12CC=CCCCC1(CCCC=CCCCCCC[C@@](C)(C(=O)N[C@@H](Cc3cccc(F)c3)C(=O)N[C@@H](Cc3csc4ccccc34)C(=O)N[C@@H](CCC(N)=O)C(N)=O)NC(=O)[C@H](CCC(N)=O)NC(=O)[C@H](Cc3ccccc3)NC(=O)[C@H](C)NC(=O)[C@H](C)NC(=O)[C@H](Cc3c[nH]cn3)NC(=O)[C@H](CC(=O)O)NC1=O)NC(=O)[C@H](C)NC(=O)[C@H](CC(=O)O)NC2=O` (stereo partly drawn) [I-399, Ac-PL3-Asp-Ala-B5-Asp-His-Ala-Ala-Phe-Gln-S8-3FF-BztA-Gln-NH2] gave a chromatographic logD in “CHI Log D procedure” of 2.52. In addition, the IC50 in series [1] (setting [4]) is 2.5 µM.

For the compound `CC(=O)N1CCC[C@]12CC=CCCCC1(CCCC=CCOC(=O)N(C)CCC[C@@](C)(C(=O)N[C@@H](Cc3cccc(F)c3)C(=O)N[C@@H](Cc3csc4ccccc34)C(=O)N[C@@H](CCC(N)=O)C(N)=O)NC(=O)[C@H](CCC(N)=O)NC(=O)[C@H](Cc3ccccc3)NC(=O)[C@H](C)NC(=O)[C@H](C)NC(=O)[C@H](Cc3c[nH]cn3)NC(=O)[C@H](CC(=O)O)NC1=O)NC(=O)[C@H](C)NC(=O)[C@H](CC(=O)O)NC2=O` (stereo partly drawn) [I-400, Ac-PL3-Asp-Ala-B5-Asp-His-Ala-Ala-Phe-Gln-SeN-3FF-BztA-Gln-NH2], the chromatographic logD in “CHI Log D procedure” is 1.92. The IC50 in series [1] (setting [4]) came to 3.59 µM.

In “CHI Log D procedure”, `CC(=O)N1CCC[C@]12CC=CCCCC1(CCCC=CCCCCCC[C@@](C)(C(=O)N[C@@H](Cc3cccc(F)c3)C(=O)N[C@@H](Cc3csc4ccccc34)C(=O)N[C@@H](CCC(N)=O)C(N)=O)NC(=O)[C@H](CCC(N)=O)NC(=O)[C@H](Cc3cccs3)NC(=O)[C@H](C)NC(=O)[C@H](C)NC(=O)[C@H](CCC(=O)O)NC(=O)[C@H](CC(=O)O)NC1=O)NC(=O)[C@H](C)NC(=O)[C@H](CC(=O)O)NC2=O` (stereo partly drawn) [I-401, Ac-PL3-Asp-Ala-B5-Asp-Glu-Ala-Ala-2Thi-Gln-S8-3FF-BztA-Gln-NH2] came in with a chromatographic logD of 2.28. In addition, the IC50 in series [1] (setting [4]) turned out to be 0.134 µM.

In turn, `CC(=O)N1CCC[C@]12CC=CCCCC1(CCCC=CCCCCCC[C@@](C)(C(=O)N[C@@H](Cc3cccc(F)c3)C(=O)N[C@@H](Cc3csc4ccccc34)C(=O)N[C@@H](CCC(N)=O)C(N)=O)NC(=O)[C@H](C(C)C)NC(=O)[C@H](Cc3ccccc3)NC(=O)[C@H](C)NC(=O)[C@H](C)NC(=O)[C@H](Cc3cccs3)NC(=O)[C@H](CC(=O)O)NC1=O)NC(=O)[C@H](C)NC(=O)[C@H](CC(=O)O)NC2=O` (stereo partly drawn) [I-402, Ac-PL3-Asp-Ala-B5-Asp-2Thi-Ala-Ala-Phe-Val-S8-3FF-BztA-Gln-NH2] yielded a chromatographic logD in the series “CHI Log D procedure” of 3.39. The IC50 in series [1] (setting [4]) turned out to be 5 µM.

As a reminder, the chromatographic logD is a lipophilicity value derived from retention on a column.
